Experimental data from the NIST ThermoML archive (doi:10.1021/je800849s).

Conditions: Liquid, Closed cell (Static) method

CCC [propane]
Conditions | vapor or sublimation pressure [kPa]
263.3 K | 344
283.25 K | 639
291.22 K | 795
296.23 K | 906
308.21 K | 1221
323.19 K | 1715
